Assay results: patent US12404249B2, “Heterocyclic derivatives and use thereof” (C&C RESEARCH LABORATORIES, priority 2018, dated 2025)
One block for each compound: values may come before it.

Assays:
[1] = system: prostate cancer cell line (LNCap); assay: Cell growth inhibition assay (Celltiter Glo); assay type: cell-based; conditions: Homo sapiens, LNCap cells, 120 hours incubation
Experimental: Cancer cell inhibitory effects by the compounds of the Examples were evaluated as follows. The prostate cancer cell line (LNCap) used was cultured under the condition according to the vendor's recommendation. LNCap was dispensed into a 96-well plate at 10,000 cells/well. After incubation under the condition of 37° C. and 5% CO2 for 24 hours, the Example compounds of 50 mM DMSO stock were diluted to various concentrations and treated to the 96-well plate containing cells. After treatment of the Example compounds, LNCap cells were incubated in an incubator (37° C., 5% CO2) for 120 hours. After each incubation time, the 96-well plate was observed under a microscope to record the presence or absence of drug precipitation and specificities, and the 96-well plate was kept at room temperature for 30 minutes. Then, after addition of 20 μL of Celltiter Glo solution, the 96-well plate was well shaken for 30 minutes. The growth inhibitory activity was measured on microLUMA LB96P (BERTHOLD) instrument using Glo-vial protocol. As a negative control, a 96 well-plate in which culture medium was added but cells were not plated was used. As a positive control, a 96 well-plate in which cells were plated and 0.1% DMSO instead of drugs was added was used. The results of growth inhibitory effects of the Example compounds on prostate cancer cell line are represented in Table 2.

STAT3 = molecular target: T1, STAT3 (Homo sapiens, UniProt P40763); assay: STAT3 activation inhibition assay (reporter gene assay, LNcaP stable cell line, IL-6 stimulated); assay type: cell-based; conditions: LNcaP stable cell line [plasmid STAT3-TA-luc], IL-6 10 ng/mL, 48 hours, luciferase activity; read-out: IC50 (μM) pSTAT3
T1 construct: endogenous in cells; host or cells: LNCaP (human prostate cancer) stably carrying pSTAT3-TA-luc reporter plasmid
Experimental: Cancer cell lines used for evaluating the compounds of the Examples were purchased from ATCC (American Type Culture Collection) or KCLB (Korean Cell Line Bank), and cultured according to the vendor's recommendation. The human prostate cancer cell line stably expressing the STAT3 promoter (LNcaP stable cell line [plasmid STAT3-TA-luc])—which was prepared to evaluate the inhibitory effect of the compounds of the Examples against dimerization of STAT3—was cultured in RPMI1640 (Cat no. 11875, Gibco), 10% fetal bovine serum (Cat no. SH30071.03, Hyclone) and 150 μg/mL G418 solution (Cat no. 04 727 894 001, Roche).
The reporter gene assay of LNcap stable cell line was carried out by the use of RPMI 1640 medium containing 3% DCC-FBS (without G-418). The cell line was dispensed into two (2) white 96-well plates at 30,000 cells/well/50 μL. The cell line was incubated for 24 hours under the condition of 37° C. and 5% CO2, and then the Example compounds of 50 mM DMSO stock were diluted to various concentrations and treated to two (2) white 96-well plates containing cells. Then, IL-6 was treated to a final concentration of 10 ng/mL. After the treatment of Example compounds and IL-6, the cells were cultured for 48 hours under the condition of 37° C. and 5% CO2. After 48 hours, the 96-well plates were observed under a microscope to record the presence or absence of drug precipitation and specificities, and the 96-well plates were kept at room temperature for 30 minutes. Then, in the case of the first 96-well plate, the culture medium on the plate was removed to measure the luciferase activity, and treated with passive lysis buffer at 20 µL/well and shaken for 30 minutes. The luciferase activity was measured on microLUMA LB96P (BERTHOLD) or Centro XS LB 960 (BERTHOLD) instrument using Luciferase assay system (Cat No. E1501, Promega Corporation). In the case of the second 96-well plate, 20 μL of Glo-mix solution was added to measure cytotoxicity by the compounds of the Examples, and the plate was well shaken for 10 minutes and analyzed on microLUMA LB96P (BERTHOLD) instrument using Glo-vial protocol. As a negative control, a 96 well-plate in which culture medium was added but cells were not plated was used. As a positive control, a 96 well-plate in which cells were plated and 0.1% DMSO and culture medium containing stimulation were added was used.
The results of evaluating the inhibitory effects of the compounds of the Examples against dimerization of STAT3 and STAT1 via STAT3 and STAT1 reporter gene assay are represented in Table 1.

T1 sequence (P40763 whole entry): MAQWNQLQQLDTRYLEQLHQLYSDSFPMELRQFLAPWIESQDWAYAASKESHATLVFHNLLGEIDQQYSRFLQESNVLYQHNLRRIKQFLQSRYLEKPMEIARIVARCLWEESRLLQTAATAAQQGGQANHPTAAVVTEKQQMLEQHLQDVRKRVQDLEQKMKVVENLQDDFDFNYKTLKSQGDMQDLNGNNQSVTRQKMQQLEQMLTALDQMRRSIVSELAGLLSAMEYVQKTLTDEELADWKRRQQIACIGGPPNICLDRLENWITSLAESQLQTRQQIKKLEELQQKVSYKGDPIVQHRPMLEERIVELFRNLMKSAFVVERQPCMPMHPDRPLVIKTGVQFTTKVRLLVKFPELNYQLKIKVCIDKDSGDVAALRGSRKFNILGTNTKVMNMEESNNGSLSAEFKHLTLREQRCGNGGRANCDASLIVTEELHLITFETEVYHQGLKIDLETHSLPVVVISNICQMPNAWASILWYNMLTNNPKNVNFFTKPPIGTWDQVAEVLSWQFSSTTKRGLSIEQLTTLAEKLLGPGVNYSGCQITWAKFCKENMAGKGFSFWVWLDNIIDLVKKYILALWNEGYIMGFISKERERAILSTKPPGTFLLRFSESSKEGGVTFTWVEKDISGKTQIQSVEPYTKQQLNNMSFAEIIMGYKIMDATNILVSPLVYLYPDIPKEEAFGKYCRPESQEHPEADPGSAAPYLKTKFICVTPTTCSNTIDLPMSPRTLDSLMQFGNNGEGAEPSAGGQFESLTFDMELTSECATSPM

Compound: CS(=O)(=O)Nc1ccc(CCNc2cc(Cl)nc3c(F)cccc23)cc1 [Example 45, N-(4-(2-((2-chloro-8-fluoroquinolin-4-yl)amino)ethyl)phenyl)methanesulfonamide]
IC50 [1]: 13.1 µM
IC50 (STAT3): 13.1 µM

Compound: CS(=O)(=O)Nc1ccc(CCNc2ncc(Cl)c3ccccc23)cc1 [Example 74, N-(4-(2-((4-chloroisoquinolin-1-yl)amino)ethyl)phenyl)methanesulfonamide]
IC50 [1]: 13.1 µM
IC50 (STAT3): 3.9 µM

Compound: CS(=O)(=O)Nc1ccc(CCNc2nc(Cl)nc3ccccc23)cc1 [Example 23, N-(4-(2-((2-chloroquinazolin-4-yl)amino)ethyl)phenyl)methanesulfonamide]
IC50 [1]: 0.25 µM
IC50 (STAT3): 0.26 µM

Compound: O=[N+]([O-])c1ccc(CCNc2ncnc3ccc(-c4ccc(Cl)cc4Cl)cc23)cc1 [Example 54, 6-(2,4-dichlorophenyl)-N-(4-nitrophenethyl)quinazolin-4-amine]
IC50 [1]: 14.1 µM
IC50 (STAT3): 11 µM

Compound: O=[N+]([O-])c1ccc(CCNc2nc(Cl)nc3ccccc23)cc1 [Example 18, 2-chloro-N-(4-nitrophenethyl)quinazolin-4-amine]
IC50 [1]: 0.48 µM
IC50 (STAT3): 0.21 µM

Compound: O=[N+]([O-])c1ccc(CCNc2ncnc3ccc(F)cc23)cc1 [Example 61, 6-fluoro-N-(4-nitrophenethyl)quinazolin-4-amine]
IC50 [1]: 0.19 µM
IC50 (STAT3): 0.053 µM

Compound: O=[N+]([O-])c1ccc(CCNc2cc(Cl)nc3ccc(S(=O)(=O)NCCc4ccc([N+](=O)[O-])cc4)cc23)cc1 [Example 19, 2-chloro-N-(4-nitrophenethyl)-4-((4-nitrophenethyl)amino)quinolin-6-sulfonamide]
IC50 [1]: 18.4 µM
IC50 (STAT3): > 50 µM

Compound: NC(=O)COc1ccc2nc(Cl)cc(NCCc3ccc([N+](=O)[O-])cc3)c2c1 [Example 39, 2-((2-chloro-4-((4-nitrophenethyl)amino)quinolin-6-yl)oxy)acetamide]
IC50 [1]: > 50 µM
IC50 (STAT3): > 50 µM

Next, values leading:

IC50 [1]: 0.074 µM
IC50 (STAT3): 0.1 µM
Compound: CS(=O)(=O)Nc1ccc(CCNc2cc(Cl)nc3ccc(F)cc23)cc1 [Example 22, N-(4-(2-((2-chloro-6-fluoroquinolin-4-yl)amino)ethyl)phenyl)methanesulfonamide]

IC50 [1]: 33.8 µM
IC50 (STAT3): 3.3 µM
Compound: O=[N+]([O-])c1ccc(CCNc2cc(Cl)nc3ccc(Cl)cc23)cc1 [Example 32, 2,6-dichloro-N-(4-nitrophenethyl)quinolin-4-amine]

IC50 [1]: 7 µM
IC50 (STAT3): 2.2 µM
Compound: O=[N+]([O-])c1ccc(CCNc2cc(Cl)nc3cc(F)ccc23)cc1 [Example 30, 2-chloro-7-fluoro-N-(4-nitrophenethyl)quinolin-4-amine]

IC50 [1]: 0.23 µM
IC50 (STAT3): 0.15 µM
Compound: CS(=O)(=O)Nc1ccc(CCNc2cc(Cl)nc3cccc(OC(F)(F)F)c23)cc1 [Example 26, N-(4-(2-((2-chloro-5-(trifluoromethoxy)quinolin-4-yl)amino)ethyl)phenyl)methanesulfonamide]

IC50 [1]: 44.1 µM
IC50 (STAT3): 32.3 µM
Compound: O=[N+]([O-])c1ccc(CCNc2cc(Cl)nc3ccc(N4CCOCC4)cc23)cc1 [Example 28, 2-chloro-6-morpholino-N-(4-nitrophenethyl)quinolin-4-amine 2,2,2-trifluoroacetate]

IC50 [1]: 5.1 µM
IC50 (STAT3): 10.5 µM
Compound: NS(=O)(=O)c1ccc(CCNc2cc(Cl)nc3ccccc23)cc1 [Example 3, 4-(2-((2-chloroquinolin-4-yl)amino)ethyl)benzenesulfonamide]
